{"source": "patent US11214772B2", "about": "“Production method for retinal tissue” (SUMITOMO DAINIPPON PHARMA CO., LTD., priority 2014, dated 2022)", "type_in_all_cases": "cell-based", "key": {"[1]": {"test_system": "human iPS cells (DSPC-3 strain)", "experiment": "Immunostaining of aggregate frozen sections for retinal tissue markers Chx10 and Rx", "settings": "Example 8; SAG 300 nM day 0; BMP4 1.5 nM day 3; day 22", "text": "(§1) Cell aggregates on day 22 after the start of suspension culturing were fixed with 4% para-formaldehyde to produce frozen sections. These frozen sections were immunostained for Chx10 (anti-Chx10 antibody, Exalpha, sheep), which is one of the retinal tissue markers, or Rx (anti-Rx antibody, manufactured by Takara, guinea pig), which is one of the retinal tissue markers."}, "[2]": {"test_system": "human iPS cells (1231A3 strain)", "experiment": "Bright field observation of cell aggregates in suspension culture (aggregate shape, neuroepithelium / neural tissue formation)", "experimental": "The above subconfluent human iPS cells were treated with a cell dispersion solution by using TrypLE Select (Life Technologies), and further dispersed into single cells by a pipetting operation. Thereafter, the above human iPS cells dispersed into single cells were suspended in 100 μl of a serum-free medium in a non-cell-adhesive 96 well culture plate (PrimeSurface 96V-bottom plate, SUMITOMO BAKELITE) at 1.2×10^4 cells per well, and subjected to suspension culturing at 37° C., 5% CO2. As a serum-free medium (gfCDM+KSR) therefor, a 1:1 mixture of F-12 medium and IMDM medium supplemented with 10% KSR, 450 μM 1-monothioglycerol, 1× Chemically defined lipid concentrate was used. At the start of the suspension culturing (on day 0 after the start of suspension culturing, step 2 start), Y27632 (final concentration 20 μM) was added to the above serum-free medium. By day 2 after the start of suspension culturing, cell aggregates were formed (step 2 completed, and step 3 start). On day 3 after the start of suspension culturing, a serum-free medium (50 μl) free of Y27632 was added.\nOn day 6 after the start of suspension culturing, a half amount of the medium was changed with a medium free of Y27632 and containing or not containing human recombinant BMP4 (manufactured by R&D) to adjust the final concentration of exogenous human recombinant BMP4 to 1.5 nM (55 ng/ml, FIG. 1B) or to give a medium free of exogenous human recombinant BMP4 (FIG. 1A). As the half-medium exchange operation, a half volume of the medium in the culture vessel, namely 75 μl, was discarded, the above fresh serum-free medium (75 μl) was added to adjust the total medium amount to 150 μl. Thereafter, a half amount of the medium was changed with the above serum-free medium free of Y27632 and human recombinant BMP4 once per 2-4 days. […]\nThe thus-prepared subconfluent human iPS cells were treated with a cell dispersion solution by using TrypLE Select (Life Technologies), and further dispersed into single cells by a pipetting operation. Thereafter, the above human iPS cells dispersed into single cells were suspended in 100 μl of a serum-free medium in a non-cell-adhesive 96 well culture plate (PrimeSurface 96V-bottom plate, SUMITOMO BAKELITE) at 1.2×10^4 cells per well, and subjected to suspension culturing at 37° C., 5% CO2. As a serum-free medium (gfCDM+KSR) therefor, a 1:1 mixture of F-12 medium and IMDM medium supplemented with 10% KSR, 450 μM 1-monothioglycerol, 1× Chemically defined lipid concentrate was used. […] By day 2 after the start of suspension culturing, cell aggregates were formed (step 2 completed, step 3 start). On day 3 after the start of suspension culturing, a serum-free medium (50 μl) free of Y27632 and SAG was added. On day 6 after the start of suspension culturing, a half amount of the medium was changed with a medium free of Y27632 and containing or not containing human recombinant BMP4 (manufactured by R&D) to adjust the final concentration of exogenous human recombinant BMP4 to 1.5 nM (55 ng/ml, FIG. 1D) or to give a medium free of exogenous human recombinant BMP4 (FIG. 1C). As the half-medium exchange operation, a half volume of the medium in the culture vessel, namely 75 μl, was discarded, the above fresh serum-free medium (75 μl) was added to adjust the total medium amount to 150 μl. Thereafter, a half amount of the medium was changed with the above serum-free medium free of Y27632, SAG and human recombinant BMP4 once per 2-4 days. […]\nThe thus-prepared subconfluent human iPS cells were treated with the cell dispersion solution by using TrypLE Select (Life Technologies), further dispersed into single cells by pipetting operation, and the above human iPS cells dispersed into single cells were suspended in 100 μl of a serum-free medium at 1.2×10^4 cells per well of a non-cell-adhesive 96-well culture plate (PrimeSurface 96V-bottom plate, manufactured by SUMITOMO BAKELITE). Thereafter, the cells were subjected to suspension culturing at 37° C., 5% CO2. […]"}, "[3]": {"test_system": "human iPS cells (1231A3 strain)", "experiment": "Immunostaining of aggregate cryosections for retinal tissue markers Chx10 and Rx", "text": "The above cell aggregates on day 19 after the start of suspension culturing were each fixed with 4% para-formaldehyde to give cryosections. These cryosections were immunostained for Chx10 (anti-Chx10 antibody, manufactured by Exalpha, sheep), which is one of the retinal tissue markers, or Rx (anti-Rx antibody, manufactured by TAKARA, guinea pig), which is one of the retinal tissue markers. In judgment of whether the above marker is positive in the immunostaining analysis, a fluorescence intensity which is not less than 2 times higher than that of the background was taken as positive.\nas §1, with “The thus-prepared cell” for “Cell”, “18” for “22”, “culturing, which were produced by adding SAG in step 2 from feeder-free iPS cells as a starting material,” for “culturing”, “TAKARA,” for “Takara,”, “markers. These immunostained sections were observed under an inverted fluorescence microscope.” for “markers.”\nThe cell aggregates on day 18 after the start of suspension culturing were fixed with 4% para-formaldehyde to produce frozen sections. These frozen sections were immunostained for Chx10 (anti-Chx10 antibody, Exalpha, sheep), which is one of the retinal tissue markers."}, "[4]": {"settings": "Example 1, StemFit, SAG 300 nM day 0, BMP4 1.5 nM day 6, day 19"}, "[5]": {"settings": "Example 1, StemFit, SAG 300 nM day 0, no BMP4, day 19"}, "[6]": {"settings": "Example 2 Condition 3, Essential 8, SAG 300 nM day 0, no BMP4, day 18"}, "[7]": {"settings": "Example 4 Condition 1, SAG 300 nM day 0, BMP4 1.5 nM day 3, day 18"}, "[8]": {"settings": "Example 4 Condition 2, SAG 300 nM day 0, BMP4 1.5 nM day 6, day 18"}, "[9]": {"settings": "Example 5 Condition 1, SAG 600 nM day 0, BMP4 1.5 nM day 3, day 18"}, "[10]": {"settings": "Example 5 Condition 2, SAG 600 nM day 0, BMP4 1.5 nM day 6, day 18"}}, "data": [{"smiles": "CNC1CCC(N(Cc2cccc(-c3ccncc3)c2)C(=O)c2sc3ccccc3c2Cl)CC1", "note": "(centres unmarked) [SAG]", "values": [{"measurement": "proportion of Chx10-positive cells in the total cells", "setting": "[1]", "result": "about 10%"}, {"measurement": "proportion of Rx-positive cells in the total cells", "setting": "[1]", "result": "about 10%"}, {"measurement": "aggregate shape and neuroepithelial structure (bright field)", "setting": "[2]; [4]", "result": "cell aggregates were maintained, and neuroepithelial structure was observed"}, {"measurement": "aggregate shape and neuroepithelial structure (bright field)", "setting": "[2]; [5]", "result": "cell aggregates were maintained, and neuroepithelial structure was observed"}, {"measurement": "aggregate shape and neuroepithelial structure (bright field)", "setting": "[2]; [6]", "result": "cell aggregates were maintained, and neuroepithelial structure was efficiently formed"}, {"measurement": "proportion of bad form aggregates (collapsed, free of neuroepithelium)", "setting": "[2]; [6]", "result": 6, "unit": "%"}, {"measurement": "proportion of good form aggregates (containing many neuroepithelia)", "setting": "[2]; [6]", "result": 93, "unit": "%"}, {"measurement": "aggregate shape and neuroepithelial structure (bright field)", "setting": "[2]; Example 2 Condition 4, Essential 8, SAG 300 nM day 0, BMP4 1.5 nM day 6, day 18", "result": "cell aggregates were maintained, and neuroepithelial structure was efficiently formed"}, {"measurement": "aggregate shape and neural tissue formation (microscope)", "setting": "[2]; Example 4 Condition 1, StemFit, SAG 300 nM day 0, BMP4 1.5 nM day 3, day 18", "result": "cell aggregates were maintained, and a neural tissue was formed"}, {"measurement": "aggregate shape and neural tissue formation (microscope)", "setting": "[2]; Example 4 Condition 2, StemFit, SAG 300 nM day 0, BMP4 1.5 nM day 6, day 18", "result": "cell aggregates were maintained, and a neural tissue was formed"}, {"measurement": "aggregate shape and neural tissue formation (microscope)", "setting": "[2]; Example 5 Condition 1, StemFit, SAG 600 nM day 0, BMP4 1.5 nM day 3, day 18", "result": "cell aggregates were maintained, and a neural tissue was formed"}, {"measurement": "aggregate shape and neural tissue formation (microscope)", "setting": "[2]; Example 5 Condition 2, StemFit, SAG 600 nM day 0, BMP4 1.5 nM day 6, day 18", "result": "cell aggregates were maintained, and a neural tissue was formed"}, {"measurement": "aggregate growth and neuroepithelium formation (bright field)", "setting": "[2]; Example 7, StemFit, SAG 30 nM, PMA 0.2 μM or human recombinant Shh 300 ng/ml day 0, BMP4 1.5 nM day 3, day 18", "result": "cell aggregates grew and neuroepithelium was formed"}, {"measurement": "proportion of Chx10-positive cells", "setting": "[3]; [4]", "result": "not less than 60%"}, {"measurement": "proportion of Rx-positive cells in the total cells", "setting": "[3]; [4]", "result": "not less than 60%"}, {"measurement": "proportion of Chx10-positive cells", "setting": "[3]; [5]", "result": "less than 3%"}, {"measurement": "proportion of Rx-positive cells in the total cells", "setting": "[3]; [5]", "result": "less than 3%"}, {"measurement": "proportion of Chx10-positive cells", "setting": "[3]; [7]", "result": "about 40%"}, {"measurement": "proportion of Rx-positive cells in the total cells", "setting": "[3]; [7]", "result": "about 40%"}, {"measurement": "proportion of Chx10-positive cells", "setting": "[3]; [8]", "result": "about 40%"}, {"measurement": "proportion of Rx-positive cells in the total cells", "setting": "[3]; [8]", "result": "about 40%"}, {"measurement": "proportion of Chx10-positive cells", "setting": "[3]; [9]", "result": "about 40%"}, {"measurement": "proportion of Rx-positive cells in the total cells", "setting": "[3]; [9]", "result": "about 40%"}, {"measurement": "proportion of Chx10-positive cells", "setting": "[3]; [10]", "result": "about 40%"}, {"measurement": "proportion of Rx-positive cells in the total cells", "setting": "[3]; [10]", "result": "about 40%"}, {"measurement": "presence of Chx10-positive cells in the cell aggregate", "setting": "[3]; Example 7, SAG 30 nM or Shh 300 ng/ml day 0, BMP4 1.5 nM day 3, day 18", "result": "contained Chx10-positive cells"}]}]}
